Measurements from ChEMBL document CHEMBL1146407, “Taxuspinananes A and B, new taxoids from Taxus cuspidata var. nana” (J Nat Prod, 1997).
≈ marks a conversion by molar mass, not a printed value.

Test system: P388
Experiment: Cytotoxicity against mouse P388 cells after 48 hrs by MTT assay
Type: functional, cell-based
Details: P388, 48 h

## C=C1[C@@H](O)C[C@H](OC(C)=O)[C@@]2(C)[C@@H](OC(C)=O)[C@H](OC(=O)c3ccccc3)C3=C(C)C(=O)C[C@@]3(C(C)(C)O)[C@@H](OC(C)=O)[C@H]12 [13-OXO-TAXCHININ A]
  IC50: 10 mg/L (≈ 16.3 µM)

## CC(=O)O[C@H]1C(=O)[C@@]2(C)[C@H]([C@H](OC(=O)c3ccccc3)[C@]3(O)C[C@H](OC(=O)[C@H](O)[C@@H](NC(=O)c4ccccc4)c4ccccc4)C(C)=C1C3(C)C)[C@]1(OC(C)=O)CO[C@@H]1C[C@@H]2O [PACLITAXEL]
  IC50: 0.03 mg/L (≈ 0.0351 µM)

## CCC(C)CCC(=O)N[C@@H](c1ccccc1)[C@@H](O)C(=O)O[C@H]1C[C@@]2(O)[C@@H](OC(=O)c3ccccc3)[C@@H]3[C@]4(OC(C)=O)CO[C@@H]4C[C@H](O)[C@@]3(C)C(=O)[C@H](OC(C)=O)C(=C1C)C2(C)C (stereo partly drawn) [TAXUSPINANANE A]
  IC50: 0.01 mg/L (≈ 0.0116 µM)
